Legend:
[1] = biological target: T1, phosphorylated Axl (pAxl Y702) in NCI-H1299 cells (Homo sapiens, UniProt P30530); test: Intracellular Axl Phosphorylation Inhibitory Activity (pAxl, NCI-H1299 cells); assay type: cell-based; conditions: 1 h compound incubation, GAS6 stimulation 10 minutes, pAxl (Y702) level
T1 construct: endogenous in cells; host or cells: NCI-H1299
T1 sequence (P30530 26-894): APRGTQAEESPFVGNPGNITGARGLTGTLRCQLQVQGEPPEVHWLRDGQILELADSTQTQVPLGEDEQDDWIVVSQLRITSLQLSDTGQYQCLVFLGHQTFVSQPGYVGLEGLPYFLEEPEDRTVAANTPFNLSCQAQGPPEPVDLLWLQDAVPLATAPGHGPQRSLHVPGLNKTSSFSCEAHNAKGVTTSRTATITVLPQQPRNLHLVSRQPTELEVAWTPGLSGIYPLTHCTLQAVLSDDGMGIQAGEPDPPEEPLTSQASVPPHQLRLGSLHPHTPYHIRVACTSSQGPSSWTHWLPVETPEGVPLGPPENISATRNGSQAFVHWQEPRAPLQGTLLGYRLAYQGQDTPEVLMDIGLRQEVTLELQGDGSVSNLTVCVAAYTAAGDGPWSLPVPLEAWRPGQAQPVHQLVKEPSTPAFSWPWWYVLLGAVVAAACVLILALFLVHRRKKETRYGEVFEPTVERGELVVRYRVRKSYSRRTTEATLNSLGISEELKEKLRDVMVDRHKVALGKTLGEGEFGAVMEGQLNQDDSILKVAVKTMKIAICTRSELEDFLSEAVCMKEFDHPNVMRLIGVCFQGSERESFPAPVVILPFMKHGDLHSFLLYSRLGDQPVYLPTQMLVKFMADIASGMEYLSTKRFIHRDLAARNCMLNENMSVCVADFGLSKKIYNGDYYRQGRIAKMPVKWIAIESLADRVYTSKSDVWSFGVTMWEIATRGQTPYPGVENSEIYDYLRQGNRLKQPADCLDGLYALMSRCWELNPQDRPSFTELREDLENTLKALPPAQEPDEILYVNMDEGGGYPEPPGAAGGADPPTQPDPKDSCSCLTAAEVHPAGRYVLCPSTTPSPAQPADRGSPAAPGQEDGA
Protocol: A phosphorylated Axl (hereinafter pAxl) inhibitory test was performed using the human non-small-cell lung cancer-derived cell strain NCI-H1299.
On the following day, the medium was removed, 100 μl of fresh medium were added, and the cells were cultured at 37° C. in the presence of 5% CO2 for one day.
The test compound was dissolved in DMSO and diluted with medium to prepare a sample solution (DMSO concentration: 2%). Twenty-five microliters of medium or sample-added medium was added to each well (DMSO concentration: 0.4%), and the plate was incubated at 37° C. in the presence of 5% CO2 for one hour.
After stirring, the plate was incubated at 37° C. in the presence of 5% CO2 for 10 minutes.
The supernatant was discarded, and 0.1 ml of a 37% formalin solution diluted to 4% with phosphate buffer (PBS) (hereinafter “4% formalin solution”) was added to each well. The plate was allowed to stand at room temperature for 10 minutes.
Next, the 4% formalin solution was discarded, and 0.2 ml of a solution of Triton X-100 diluted to 0.1% with PBS (hereinafter “wash buffer”) was added. The wash buffer was discarded using a decanter, and excess moisture in the plate was removed on a paper towel.
Subsequently, […] NaN3 and H2O2 were added to the wash buffer at 0.1% (hereinafter “quenching buffer”), and 0.1 ml of the quenching buffer was added to each well. The plate was allowed to stand at room temperature for 15 minutes.
The quenching buffer was discarded, and 0.2 ml of wash buffer was added. The wash buffer was discarded using a decanter, and excess moisture in the plate was removed on a paper towel.
Skim milk (Nacalai Tesque) was added to the wash buffer at a final concentration of 5% (hereinafter “blocking buffer”), and 0.25 ml of the blocking buffer was added to each well. The plate was allowed to stand at room temperature for one hour.
After light stirring, the plate was incubated for 20 minutes. Luminescence was then measured by ARVO sx (PerkinElmer), and the pAxl (Y702) level was measured.
pAxl Inhibitory activity was determined by the following formula. Inhibition %=100−(A−B)×100/(T−B)
A: Measurement of the test compound
T: Luminescence value of the reaction solution with a compound not added

[2] = biological target: T2, AXL (fusion protein of amino acids 464-885 of the intracellular domain of human AXL with glutathione transferase) (Homo sapiens, UniProt P30530); test: Cell-Free Axl Kinase Inhibitory Activity
T2 sequence (P30530 464-885 isoform P30530-2): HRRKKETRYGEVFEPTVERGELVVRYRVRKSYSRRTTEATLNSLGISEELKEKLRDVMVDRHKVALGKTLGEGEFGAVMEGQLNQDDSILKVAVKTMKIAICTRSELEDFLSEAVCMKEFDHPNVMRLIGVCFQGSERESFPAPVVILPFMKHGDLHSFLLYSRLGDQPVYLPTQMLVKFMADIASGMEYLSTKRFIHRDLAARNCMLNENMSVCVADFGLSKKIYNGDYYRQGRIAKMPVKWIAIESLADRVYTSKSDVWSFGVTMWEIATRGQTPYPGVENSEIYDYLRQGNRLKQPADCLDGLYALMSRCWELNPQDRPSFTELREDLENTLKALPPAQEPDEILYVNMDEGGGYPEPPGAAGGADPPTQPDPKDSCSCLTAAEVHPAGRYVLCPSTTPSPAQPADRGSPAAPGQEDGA
Protocol: Next, the test compound was diluted with DMSO, and 1 μl of this diluted solution was added to each well.
Five microliters of this solution were added to each well to initiate a kinase reaction. The plate was incubated at 28° C. for 1.5 hours, and 40 μl of a termination buffer (100 mM HEPES (pH 7.4), 0.015% Brij-35, 40 mM EDTA, 0.1% Coating Reagent 3) was added to each well to terminate the reaction.
The substrate peptide and the phosphorylated peptide in the reaction solution were separated and quantified by EZ Reader II (Caliper Life Sciences).
IC50 was determined from inhibition data for 12 test compound concentrations by nonlinear regression (four-parameter logistic regression) using the following formula.

Structure (SMILES)	IC50 [1] [nM]	IC50 [2] [nM]
CC(=O)N1C2C=C(c3cnc(N)c(-c4ccc(NC(=O)c5cn(CCF)cc(-c6ccc(F)cc6)c5=O)cc4)c3)CC1CC2 (stereo not drawn) [Example 81, N-{4-[5-(8-Acetyl-8-azabicyclo[3.2.1]oct-2-en-3-yl)-2-aminopyridin-3-yl]phenyl}-1-(2-fluoroethyl)-5-(4-fluorophenyl)-4-oxo-1,4-dihydropyridine-3-carboxamide]	100 to 500	23
COc1ccnc(N)c1-c1ccc(NC(=O)c2cn(Cc3ccc(F)cc3)cc(C(=O)N3CCCC3)c2=O)cc1 [Example 84, N-[4-(2-Amino-4-methoxypyridin-3-yl)phenyl]-1-(4-fluorobenzyl)-4-oxo-5-(pyrrolidin-1-ylcarbonyl)-1,4-dihydropyridine-3-carboxamide]	100 to 500	10 to 20
COc1ccc(-c2cnc(N)c(-c3ccc(NC(=O)c4cn(CC(F)(F)F)cc(-c5ccc(F)c(Br)c5)c4=O)cc3)c2)cc1OC [Example 89, N-{4-[2-Amino-5-(3,4-dimethoxyphenyl)pyridin-3-yl]phenyl}-5-(4-fluoro-3-bromophenyl)-4-oxo-1-(2,2,2-trifluoroethyl)-1,4-dihydropyridine-3-carboxamide]	50 to 100	1 to 10

From patent US8933103B2, “Pyridone derivatives” (Daiichi Sankyo Company, Limited, priority 2012, dated 2015)
